{"source": "paper PMC5942357", "about": "(European Journal of Clinical Pharmacology, 2018)", "key": {"[1]": {"conditions": "IPF patients treated; cited from earlier work"}, "[2]": {"system": "αvβ6 integrin-mediated TGFβ activation", "conditions": "in vitro experiments; cited from earlier work"}, "[3]": {"assay": "Pulmonary function tests (DLCO, FEV1, FVC), change from baseline", "format": "in vivo, human", "experimental": "Participants were under continuous medical supervision during each admission period (up to 48 h post-dose), and safety assessments were made at regular intervals throughout each period and until the end of follow-up. Assessment of safety was conducted by monitoring AEs, clinical laboratory tests (haematology, clinical chemistry and urinalysis), vital signs (including pulse oximetry), 12-lead ECGs, telemetry, physical examinations and pulmonary function tests (forced expiratory volume in 1 s [FEV1], FVC, diffusing capacity of the lung for carbon monoxide)."}, "αvβ6 integrin": {"system": "αvβ6 integrin", "conditions": "cited from earlier work"}}, "data": [{"smiles": "Cc1ccc(=O)n(-c2ccccc2)c1", "note": "[pirfenidone]", "values": [{"measurement": "Discontinuation due to adverse events (AEs), patients", "setting": "[1]", "value": "approximately 30%"}, {"measurement": "Effects on αvβ6 integrin-mediated TGFβ activation", "setting": "[2]", "value": "limited effects"}]}, {"smiles": "Cc1cc(C)n(-c2cccc([C@H](CC(=O)O)CN3CC[C@@H](CCc4ccc5c(n4)NCCC5)C3)c2)n1", "note": "[GSK3008348]", "values": [{"measurement": "DLCO, mean change from baseline to 24 h post dose", "setting": "[3]; 1 mcg, N=6", "value": -0.153, "unit": "L"}, {"measurement": "FEV1, mean change from baseline to 24 h post dose", "setting": "[3]; 1 mcg, N=6", "value": -0.043, "unit": "L"}, {"measurement": "FVC, mean change from baseline to 24 h post dose", "setting": "[3]; 1 mcg, N=6", "value": -0.06, "unit": "L"}, {"measurement": "DLCO, mean change from baseline to 24 h post dose", "setting": "[3]; 3 mcg, N=6", "value": 0.938, "unit": "L"}, {"measurement": "FEV1, mean change from baseline to 24 h post dose", "setting": "[3]; 3 mcg, N=6", "value": -0.007, "unit": "L"}, {"measurement": "FVC, mean change from baseline to 24 h post dose", "setting": "[3]; 3 mcg, N=6", "value": 0.125, "unit": "L"}, {"measurement": "DLCO, mean change from baseline to 24 h post dose", "setting": "[3]; 10 mcg, N=6", "value": 0.113, "unit": "L"}, {"measurement": "FEV1, mean change from baseline to 24 h post dose", "setting": "[3]; 10 mcg, N=6", "value": -0.053, "unit": "L"}, {"measurement": "FVC, mean change from baseline to 24 h post dose", "setting": "[3]; 10 mcg, N=6", "value": -0.105, "unit": "L"}, {"measurement": "DLCO, mean change from baseline to 24 h post dose", "setting": "[3]; 30 mcg, N=6", "value": -0.168, "unit": "L"}, {"measurement": "FEV1, mean change from baseline to 24 h post dose", "setting": "[3]; 30 mcg, N=6", "value": 0.085, "unit": "L"}, {"measurement": "FVC, mean change from baseline to 24 h post dose", "setting": "[3]; 30 mcg, N=6", "value": 0.033, "unit": "L"}, {"measurement": "DLCO, mean change from baseline to 24 h post dose", "setting": "[3]; 100 mcg, N=6", "value": -0.862, "unit": "L"}, {"measurement": "FEV1, mean change from baseline to 24 h post dose", "setting": "[3]; 100 mcg, N=6", "value": 0.023, "unit": "L"}, {"measurement": "FVC, mean change from baseline to 24 h post dose", "setting": "[3]; 100 mcg, N=6", "value": 0.12, "unit": "L"}, {"measurement": "DLCO, mean change from baseline to 24 h post dose", "setting": "[3]; 300 mcg, N=6", "value": 0.562, "unit": "L"}, {"measurement": "FEV1, mean change from baseline to 24 h post dose", "setting": "[3]; 300 mcg, N=6", "value": -0.072, "unit": "L"}, {"measurement": "FVC, mean change from baseline to 24 h post dose", "setting": "[3]; 300 mcg, N=6", "value": -0.078, "unit": "L"}, {"measurement": "DLCO, mean change from baseline to 24 h post dose", "setting": "[3]; 1000 mcg, N=12", "value": -0.293, "unit": "L"}, {"measurement": "FEV1, mean change from baseline to 24 h post dose", "setting": "[3]; 1000 mcg, N=12", "value": -0.027, "unit": "L"}, {"measurement": "FVC, mean change from baseline to 24 h post dose", "setting": "[3]; 1000 mcg, N=12", "value": -0.014, "unit": "L"}, {"measurement": "DLCO, mean change from baseline to 24 h post dose", "setting": "[3]; 3000 mcg, N=11", "value": 0.547, "unit": "L"}, {"measurement": "FEV1, mean change from baseline to 24 h post dose", "setting": "[3]; 3000 mcg, N=11", "value": -0.025, "unit": "L"}, {"measurement": "FVC, mean change from baseline to 24 h post dose", "setting": "[3]; 3000 mcg, N=11", "value": -0.094, "unit": "L"}, {"measurement": "Individual change from baseline in FEV1 and FVC over time between treatment groups", "setting": "[3]; all dose levels", "value": "did not show clinically significant differences"}, {"measurement": "Binding affinity for the αvβ6 integrin", "setting": "αvβ6 integrin", "value": "high affinity"}]}, {"smiles": "COC(=O)c1ccc2c(c1)NC(=O)/C2=C(\\Nc1ccc(N(C)C(=O)CN2CCN(C)CC2)cc1)c1ccccc1", "note": "[nintedanib]", "values": [{"measurement": "Discontinuation due to adverse events (AEs), patients", "setting": "[1]", "value": "~20", "unit": "%"}, {"measurement": "Effects on αvβ6 integrin-mediated TGFβ activation", "setting": "[2]", "value": "limited effects"}]}]}
